The text below walks through data of patent US11098041B2 (Merck Patent GmbH, priority 2014, dated 2021).

Each structure is given as a SMILES string. Bounds are passed on as bounds.

Assay [1] concerns anti-IgM-induced expression of CD69 on CD19 positive cells (B cells) in human PBMCs. Put plainly: Assay C: PBMC IC50 assay (anti-IgM-induced CD69 expression). Particulars: anti-IgM stimulation. It is filed as cell-based. The procedure:
Btk is critical for mediating the signalling of B cell antigen receptor (BCR) after anti-IgM stimulation. Based on this principle, a functional cell-based assay was established to determine the potency of compounds at inhibiting anti-IgM-induced expression of CD69, a downstream BCR signaling event, in freshly isolated human peripheral blood mononuclear cells (PBMCs). In the assay, a 90 μl PBMC suspension containing 2.5×10^5 cells was pre-treated with 10 μl of test compound at various concentrations for an hour, and then incubated overnight (approximately 16-18 hours) with 5 μl 420 μg/ml affiniPure F(ab′)2 fragment goat anti-human IgM Fc fragment per well (Dianova, Cat. No.: 109-006-129). After the incubation, the cells were washed and immunostained with an APC-labeled mouse anti-human CD69 (BD Biosciences; clone: FN50), a PerCP-Cy5.5 labelled mouse anti-human CD19 (BD Biosciences; clone: SJ25C1) and a FITC-labelled mouse anti-human CD3 (BD Biosciences; clone: HIT3a), and fixed for flow cytometric analysis of CD69 expression on CD19 positive cells (B cells). The percentage of CD69 expressing CD19 positive cells was plotted against the concentrations of test compounds to obtain a concentration response curve, and calculate an IC50 value as a measure of the potency of test compounds in the assay.

For the next assay, the target named is full-length human BTK (Homo sapiens (Human), UniProt Q06187). The experiment in a line: Assay A: microfluidic off-chip mobility shift assay against BTK enzyme. It is filed as biochemical. The protocol: Assay A: Microfluidic Off-Chip Mobility Shift Assay Protocol for Potency Assessment Against BTK Enzyme
Chain of full-length human BTK (Q06187 whole entry): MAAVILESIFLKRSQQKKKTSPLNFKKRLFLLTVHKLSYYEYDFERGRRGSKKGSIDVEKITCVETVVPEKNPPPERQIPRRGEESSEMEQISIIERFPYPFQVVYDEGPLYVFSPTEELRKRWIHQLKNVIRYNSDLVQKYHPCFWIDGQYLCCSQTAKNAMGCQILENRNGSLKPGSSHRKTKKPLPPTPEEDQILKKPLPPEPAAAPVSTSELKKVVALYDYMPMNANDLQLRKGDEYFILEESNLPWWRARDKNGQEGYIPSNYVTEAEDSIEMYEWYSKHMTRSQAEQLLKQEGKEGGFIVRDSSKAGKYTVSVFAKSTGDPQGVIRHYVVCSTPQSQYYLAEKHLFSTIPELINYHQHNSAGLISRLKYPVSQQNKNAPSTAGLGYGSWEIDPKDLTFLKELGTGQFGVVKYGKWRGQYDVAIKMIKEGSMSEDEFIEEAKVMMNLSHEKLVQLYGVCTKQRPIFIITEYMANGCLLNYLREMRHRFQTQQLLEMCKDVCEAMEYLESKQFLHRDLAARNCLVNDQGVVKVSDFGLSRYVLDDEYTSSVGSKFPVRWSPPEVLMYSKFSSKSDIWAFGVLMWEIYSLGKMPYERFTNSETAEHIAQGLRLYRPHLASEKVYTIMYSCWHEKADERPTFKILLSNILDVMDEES
The protocol below describes microfluidic, off-chip mobility shift kinase assay to measure inherent potency of compounds against BTK enzyme.
5 uL of enzyme buffer and 7.5 uL of ATP/kinKDR peptide substrate mix were added to Matrix (#115304) 384-well, sterile, polypropylene plates (Thermo Fisher Scientific, Hudson, N.H.) with 125 nL of serially diluted compounds prepared in 100% DMSO, and incubated for 90 min. at 27° C. Following the incubation period, reactions were stopped by adding 60 uL stop buffer consisting of 100 mM HEPES, pH 7.5, 0.015% Brij-35 (30%), 0.277% Coating Reagent #3 (Caliper Life Sciences, Mountain View, Calif.), 5% DMSO. Stopped reactions were monitored at −2 PSI, −3000 V/−700 V in a LabChip 3000 plate reader from Caliper Life Sciences, a PerkinElmer Company (Hopkinton, Mass.), and the activity was measured by off-chip mobility shift assay measuring the charge/mass difference between substrate and product resulting from peptide phosphorilation. IC50 and efficacy were determined by plotting log [Inhibitor] vs. % Activity in GeneData Screener (Basel. Switzerland).

Assay [2] has as its target BTK C481S (His-TEV-hsBTK(328-659)(C481S)) (Homo sapiens (Human), UniProt Q06187, C481S). Put plainly: Assay B: microfluidic off-chip mobility shift assay against BTK C481S enzyme. Format: biochemical. To be noted: BTK C481S mutant. The protocol: The mechanics of the assay platform are described by the vendor (PerkinElmer, Hopkinton, Mass.) on their website at the following URL: http://caliperls.com.
5 uL of enzyme buffer and 7.5 uL of ATP/KinKDR peptide substrate mix were added to Matrix (#4315) 384-well, sterile, flat-bottom polypropylene plates (Thermo Fisher Scientific, Hudson, N.H.) with 125 nL of serially diluted compounds prepared in 100% DMSO, and incubated for 90 min. at 25° C. Following the incubation period, reactions were terminated by adding 65 uL quench buffer consisting of 100 mM HEPES, pH 7.5, 0.015% Brij-35 (30%), 0.277% Coating Reagent #3 (PerkinElmer, Mountain View, Calif.), 5% DMSO. Terminated reactions were monitored at −2 PSI, −3000 V/−700 Volts in a LabChip 3000 plate reader from Caliper Life Sciences, a PerkinElmer Company (Hopkinton, Mass.), and the activity was quantified by laser-induced fluorescence measuring the charge/mass difference between substrate and product resulting from peptide phosphorylation. IC50 and efficacy were determined by plotting log [Inhibitor] vs. % Activity in GeneData Screener (Basel, Switzerland).

Chain of BTK C481S (His-TEV-hsBTK(328-659)(C481S)) (Q06187 328-659 C481S): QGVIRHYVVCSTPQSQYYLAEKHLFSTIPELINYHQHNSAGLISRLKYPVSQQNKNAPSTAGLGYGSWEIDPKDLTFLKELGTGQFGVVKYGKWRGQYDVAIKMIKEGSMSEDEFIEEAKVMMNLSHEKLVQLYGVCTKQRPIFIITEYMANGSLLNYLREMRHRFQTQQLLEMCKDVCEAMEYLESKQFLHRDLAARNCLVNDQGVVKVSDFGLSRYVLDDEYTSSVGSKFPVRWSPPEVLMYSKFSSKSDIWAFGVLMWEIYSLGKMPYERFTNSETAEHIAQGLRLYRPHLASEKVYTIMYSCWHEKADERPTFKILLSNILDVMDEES

One may read the IC50 as the concentration that gives 50% inhibition. With `Cn1cc(-c2nc3c(-c4ccc(CNC(=O)c5nc(C6(C)CC6)no5)c(F)c4)ccnc3[nH]2)cn1` [Example 165, N-([2-fluoro-4-[2-(1-methyl-1H-pyrazol-4-yl)-3H-imidazo[4,5-b]pyridin-7-yl]phenyl]methyl)-3-(1-methylcyclopropyl)-1,2,4-oxadiazole-5-carboxamide], in assay [1], the IC50 is 100 to 1000 nM. As to `CC(C)(C)c1cc(C(=O)NCc2ccc(-c3ccnc4[nH]c(C5CCNC(=O)C5)nc34)cc2F)no1` (stereo not shown) [Example 29, 5-tert-Butyl-isoxazole-3-carboxylic acid 2-fluoro-4-[2-(2-oxo-piperidin-4-yl)-3H-imidazo[4,5-b]pyridin-7-yl]-benzylamide], the IC50 at full-length human BTK was 1000 to 5000 nM; in assay [2] it was 100 to 1000 nM. Taken in the same sequence, the figures for `Cn1cc(-c2nc3c(-c4ccc(C5CCCN5C(=O)c5ccc(C(C)(C)C)cc5)cc4)ccnc3[nH]2)cn1` (stereo not shown) [Example 121, (4-tert-Butyl-phenyl)-(2-{4-[2-(1-methyl-1H-pyrazol-4-yl)-3H-imidazo[4,5-b]pyridin-7-yl]-phenyl}-pyrrolidin-1-yl)-methanone] were less than 100 nM and less than 100 nM. In the case of `CC(C)(C)c1nnc(C(=O)NCc2ccc(-c3ccnc4[nH]c(-c5cnn(C6CCOCC6)c5)nc34)cc2F)o1` [Example 126, 5-tert-Butyl-[1,3,4]oxadiazole-2-carboxylic acid 2-fluoro-4-{2-[1-(tetrahydro-pyran-4-yl)-1H-pyrazol-4-yl]-3H-imidazo[4,5-b]pyridin-7-yl}-benzylamide], the IC50 (at full-length human BTK; in assay [2]) was less than 100 nM in each case.

With `Cn1cc(-c2nc3c(-c4ccc5c(c4)CN(C(=O)c4nc(C(C)(C)C)no4)CC5)ccnc3[nH]2)cn1` [Example 155, (3-tert-Butyl-[1,2,4]oxadiazol-5-yl)-{7-[2-(1-methyl-1H-pyrazol-4-yl)-3H-imidazo[4,5-b]pyridin-7-yl]-3,4-dihydro-1H-isoquinolin-2-yl}-methanone], the concentration for half-maximal inhibition (IC50) (on full-length human BTK; in assay [2]) was more than 5000 nM in each case. As for `Cn1cc(-c2nc3c(-c4ccc(CNC(=O)C5CCC(C(C)(C)C)CC5)c(F)c4)ccnc3[nH]2)cn1` (stereo not shown) [Example 15, 4-tert-Butyl-cyclohexanecarboxylic acid 2-fluoro-4-[2-(1-methyl-1H-pyrazol-4-yl)-3H-imidazo[4,5-b]pyridin-7-yl]-benzylamide], the 50% inhibitory concentration (IC50) in assay [1] is 1000 to 5000 nM. `CC(C)(C)c1ccc(C(=O)NCc2ccc(-c3ccnc4[nH]c(C5CC5)nc34)cc2F)cc1` [Example 26, 4-tert-Butyl-N-[4-(2-cyclopropyl-3H-imidazo[4,5-b]pyridin-7-yl)-2-fluoro-benzyl]-benzamide]: the concentration for half-maximal inhibition (IC50) (on full-length human BTK; in assay [2]) was less than 100 nM in each case. Regarding `Cn1cc(-c2nc3c(-c4ccc5c(c4)CN(C(=O)c4nc(C(C)(C)C)no4)C5)ccnc3[nH]2)cn1` [Example 156, (3-tert-Butyl-[1,2,4]oxadiazol-5-yl)-{5-[2-(1-methyl-1H-pyrazol-4-yl)-3H-imidazo[4,5-b]pyridin-7-yl]-1,3-dihydro-isoindol-2-yl}-methanone], the results for the concentration for half-maximal inhibition (IC50) (at full-length human BTK; in assay [2]) were 100 to 1000 nM and 1000 to 5000 nM, respectively. Taken in the same sequence, the figures for `CC(C)(C)c1nc(C(=O)NCc2ccc(-c3ccnc4[nH]c(C5CCNC(=O)C5)nc34)cc2F)no1` (stereo not shown) [Example 30, 5-tert-Butyl-[1,2,4]oxadiazole-3-carboxylic acid 2-fluoro-4-[2-(2-oxo-piperidin-4-yl)-3H-imidazo[4,5-b]pyridin-7-yl]-benzylamide] were 1000 to 5000 nM and 100 to 1000 nM. The corresponding values for `Cn1cc(-c2nc3c(-c4ccc(CO)c(F)c4)ccnc3[nH]2)cn1` [Example 32, {2-Fluoro-4-[2-(1-methyl-1H-pyrazol-4-yl)-3H-imidazo[4,5-b]pyridin-7-yl]-phenyl}-methanol] are 1000 to 5000 nM and 100 to 1000 nM.

In the case of `Cn1cc(-c2nc3c(-c4ccc(CN5CCOc6cc(C7CC7)cc(F)c6C5=O)cc4CO)ccnc3[nH]2)cn1` [Example 38, 8-Cyclopropyl-6-fluoro-4-[[3-(hydroxymethyl)0-4-[2-(1-methyl-1H-pyrazol-4-yl)-3H-imidazo[4,5-b]pyridin-7-yl]phenyl]methyl]-2,3,4,5-tetrahydro-1,4-benzoxazepin-5-one], the IC50 (at full-length human BTK; in assay [2]) was 100 to 1000 nM throughout.

Take `CC(C)(C)c1nnc(C(=O)NCc2ccc(-c3ccnc4[nH]c(-c5cnn(C6COC6)c5)nc34)cc2F)s1` [Example 125, 5-tert-Butyl-[1,3,4]thiadiazole-2-carboxylic acid 2-fluoro-4-[2-(1-oxetan-3-yl-1H-pyrazol-4-yl)-3H-imidazo[4,5-b]pyridin-7-yl]-benzylamide]: the IC50 (on full-length human BTK; in assay [2]) was less than 100 nM each time. Turning to `CC(C)(C)c1nc(C(=O)NCc2ccc(-c3ccnc4[nH]c(-c5cnn(CCN6CCOCC6)c5)nc34)cc2F)no1` [Example 119, 5-tert-Butyl-[1,2,4]oxadiazole-3-carboxylic acid 2-fluoro-4-{2-[1-(2-morpholin-4-yl-ethyl)-1H-pyrazol-4-yl]-3H-imidazo[4,5-b]pyridin-7-yl}-benzylamide], the IC50 (on full-length human BTK; in assay [2]) was less than 100 nM throughout. As for `CC(C)(C)c1noc(C(=O)NCc2ccc(-c3ccnc4[nH]c(C5CCNC(=O)C5)nc34)cc2F)n1` (stereo not shown) [Example 31, 3-tert-Butyl-[1,2,4]oxadiazole-5-carboxylic acid 2-fluoro-4-[2-(2-oxo-piperidin-4-yl)-3H-imidazo[4,5-b]pyridin-7-yl]-benzylamide], the results for the IC50 (at full-length human BTK; in assay [2]) were 1000 to 5000 nM and 100 to 1000 nM, respectively.

`Cn1cc(-c2nc3c(-c4ccc(CNC(=O)CCC(C)(C)C)c(F)c4)ccnc3[nH]2)cn1` [Example 21, 4,4-Dimethyl-pentanoic acid 2-fluoro-4-[2-(1-methyl-1H-pyrazol-4-yl)-3H-imidazo[4,5-b]pyridin-7-yl]-benzylamide]: the IC50 (at full-length human BTK; in assay [2]) was less than 100 nM each time.

`CC(C)(C)c1ccc(C(=O)Nc2cccc(-c3ccnc4[nH]c(-c5ccc(C(=O)N6CCOCC6)cc5)nc34)c2CO)cc1` [Example 46, 4-tert-Butyl-N-[2-(hydroxymethyl)-3-(2-[4-[(morpholin-4-yl)carbonyl]phenyl]-3H-imidazo[4,5-b]pyridin-7-yl)phenyl]benzamide]: the IC50 (on full-length human BTK; in assay [2]) was 1000 to 5000 nM throughout. On to `Cn1cc(-c2nc3c(-c4ccc(CNC(=O)c5cc6c(s5)CCCC6)c(F)c4)ccnc3[nH]2)cn1` [Example 132, N-(2-fluoro-4-(2-(1-methyl-1H-pyrazol-4-yl)-3H-imidazo[4,5-b]pyridin-7-yl)benzyl)-4,5,6,7-tetrahydrobenzo[b]thiophene-2-carboxamide], for which, in assay [1], the 50% inhibitory concentration (IC50) fell in the range of 100 to 1000 nM. Same read-out and setting: the same measure for `CC(C)(C)c1noc(C(=O)NCc2ccc(-c3ccnc4[nH]c(C5CC5)nc34)cc2F)n1` [Example 28, 3-tert-Butyl-[1,2,4]oxadiazole-5-carboxylic acid 4-(2-cyclopropyl-3H-imidazo[4,5-b]pyridin-7-yl)-2-fluoro-benzylamide]: 1000 to 5000 nM. For the compound `CCn1cc(C(=O)NCc2ccc(-c3ccnc4[nH]c(-c5cnn(C)c5)nc34)cc2F)cn1` [Example 20, 1-Ethyl-1H-pyrazole-4-carboxylic acid 2-fluoro-4-[2-(1-methyl-1H-pyrazol-4-yl)-3H-imidazo[4,5-b]pyridin-7-yl]-benzylamide], the IC50 (at full-length human BTK; in assay [2]) was less than 100 nM throughout.
